# Experimental data published in patent publication US7820804B2, “Fluoroglycoside derivatives of pyrazoles, medicaments containing these compounds, and the use thereof” (Sanofi-Aventia Deutschland GmbH, priority 2004, dated 2010).
# Target: T1, human sodium-dependent glucose transporter 1 (SGLT1, SLC5A1) (Homo sapiens, UniProt P13866)
# T1 construct: Bases 11 to 2005 correspond to the complete coding region of human SGLT1; expressed in transfected cells
# T1 sequence (P13866 1-664): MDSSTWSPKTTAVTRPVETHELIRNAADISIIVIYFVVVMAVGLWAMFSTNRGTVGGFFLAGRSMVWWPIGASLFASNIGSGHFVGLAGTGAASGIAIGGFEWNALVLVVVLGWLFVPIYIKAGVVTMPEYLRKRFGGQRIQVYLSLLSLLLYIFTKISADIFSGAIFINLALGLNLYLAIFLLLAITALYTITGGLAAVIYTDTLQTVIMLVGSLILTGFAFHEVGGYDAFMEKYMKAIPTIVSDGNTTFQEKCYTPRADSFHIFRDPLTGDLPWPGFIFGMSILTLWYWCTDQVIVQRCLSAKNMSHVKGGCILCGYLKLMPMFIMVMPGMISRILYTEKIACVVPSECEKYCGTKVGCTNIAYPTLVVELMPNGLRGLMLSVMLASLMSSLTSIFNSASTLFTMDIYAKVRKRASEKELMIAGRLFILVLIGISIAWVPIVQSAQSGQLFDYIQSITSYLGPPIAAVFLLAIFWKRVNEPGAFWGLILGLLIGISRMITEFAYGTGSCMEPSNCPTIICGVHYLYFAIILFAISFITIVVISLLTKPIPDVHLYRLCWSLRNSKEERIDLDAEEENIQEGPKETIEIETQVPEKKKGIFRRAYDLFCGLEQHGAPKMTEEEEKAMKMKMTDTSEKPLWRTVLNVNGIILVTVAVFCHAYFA
# Experiment: Inhibition of methyl α-D-glucopyranoside (α-MDG) uptake in CHO-TRex-hSGLT1 cells
# Assay type: cell-based
# Conditions: in vitro uptake of methyl α-D-glucopyranoside, 50 μM α-MDG, 30 min at room temperature
# From the text: A further method for testing the activity of the compounds is the inhibition of the transport activity of the human sodium-dependent glucose transporter 1 (SGLT1, SLC5A1) in vitro:
# 1. Cloning of an Expression Vector for Human SGLT1
# The cDNA for human SGLT1 was introduced into the pcDNA4/TO vector (Invitrogen) by standard methods of molecular biology as described in Sambrook et al. (Sambrook et al., Molecular Cloning, A Laboratory Manual, 2nd Edition). […] Bases 11 to 2005 correspond to the complete coding region of human SGLT1.
# 2. Preparation of a Recombinant Cell Line with Inducible Expression of Human SGLT1
# The expression vector for human SGLT1 was introduced into CHO-TRex cells (Invitrogen) by means of FuGene6 lipofection (Roche). To select single cell clones, 600 μg/mI Zeocin (Invitrogen) was added to the cell culture medium (Nutrient Mixture F-12 (Ham), (Invitrogen) supplemented with 10% fetal calf serum (BD Biosciences), 10 μg/ml blasticidin S (CN Biosciences), 100 units/ml penicillin, 100 units/ml streptomycin). The functionality of the single cell clones resulting from the selection was tested via their uptake activity for radiolabeled methyl α-D-glucopyranoside. The cell clone with the greatest uptake activity for methyl α-D-glucopyranoside, referred to as CHO-TRex-hSGLT1 hereinafter, was selected for further experiment, and cultivation was continued in the presence of 600 μg/ml of zeocin.
# 3. Measurement of the Inhibitory Effect of Test Substances on the Uptake of Methyl […]-D-glucopyranoside ([…]-MDG)
# CHO-TRex-hSGLT1 cells were seeded in a concentration of 50 000 cells per well in Cytostar-T scintillating 96-well plates (Amersham Biosciences) in cell culture medium and cultivated for 24 h. Expression of the recombinant human SGLT1 was induced by adding 1 pg/mI tetracyclin for a further 24 h. For α-MDG uptake experiments, the cells were washed with PBS and then starved (PBS supplemented with 10% fetal calf serum) at 37° C. for one hour. After a further washing step with transport assay buffer (140 mM sodium chloride, 2 mM potassium chloride, 1 mM magnesium chloride, 1 mM calcium chloride, 10 mM HEPES/Tris, pH 7.5), the cells were incubated either in the absence or presence of test substances varying in concentration at room temperature for 15 min. The test substances were diluted appropriately in transport assay buffer (40 μl/well) starting from a 10 mM stock solution in dimethyl sulfoxide.
# The assay was then started by adding 10 μl of a mixture of radiolabeled methyl α-D-[U-^14C]glucopyranoside (Amersham) and unlabeled methyl α-D-glucopyranoside (Acros). The final concentration of methyl α-D-glucopyranoside in the assay was 50 μM. After an incubation time of 30 min at room temperature, the reaction was stopped by adding 50 µl/well of 10 mM methyl α-D-glucopyranoside in transport assay buffer (4° C.), and the radioactivity uptake by the cells was determined in a MicroBeta Scintillation Microplate Reader (Wallac). The half-maximum inhibitory effect of the test substances (IC50) was determined in the following way: • 1. Establishment of the value for 0% inhibition. This is the measurement in the absence of substance, measured in sodium-containing transport assay buffer. • 2. Establishment of the value for 100% inhibition. This is the measurement in the absence of substance, measured in sodium-free transport assay buffer (140 mM choline chloride, 2 mM potassium chloride, 1 mM magnesium chloride, 1 mM calcium chloride, 10mM HEPES/Tris, pH7.5). • 3. Calculation of the percentage inhibitions for the measurements carried out in the presence of various concentrations of test substance. It was then possible to ascertain therefrom the concentration of test substance which reduced the uptake of methyl α-D-glucopyranoside by 50% (IC50).
# IC50 values of test substances (μM) [in vitro testing of the uptake of methyl α-D-glucopyranoside]
row,Compound,IC50 [nM]
1,CC(C)c1[nH]nc(OC2OC(CO)C(F)C(O)C2O)c1Cc1ccc(CCCC(=O)N2CCCC2)cc1 (stereo not drawn) [Example 15],170
2,CC(C)c1[nH]nc(OC2OC(CO)C(F)C(O)C2O)c1Cc1ccc(CCCC(=O)N[C@@H]2O[C@H](CO)[C@@H](O)[C@H](O)[C@H]2O)cc1 (stereo partly drawn) [Example 24],208
3,CC(C)c1[nH]nc(OC2OC(CO)C(F)C(O)C2O)c1Cc1ccc(/C=C/CC(=O)NCCC(N)=O)cc1 (stereo not drawn) [Example 3],43
4,CC(C)c1[nH]nc(O[C@@H]2O[C@H](CO)[C@@H](F)[C@H](O)[C@H]2O)c1Cc1ccc(C(=O)NCC(N)=O)cc1 [Example 33],70
5,CC(C)c1[nH]nc(OC2OC(CO)C(F)C(O)C2O)c1Cc1ccc(CCC(=O)NC(C)(C)CO)cc1 (stereo not drawn) [Example 18],80
6,CC(C)c1[nH]nc(OC2OC(CO)C(F)C(O)C2O)c1Cc1ccc(CCCC(=O)N2CCN(C)CC2)cc1 (stereo not drawn) [Example 12],139
7,CC(C)c1[nH]nc(OC2OC(CO)C(F)C(O)C2O)c1Cc1ccc(CCCNC(=O)N2CCN(C)CC2)cc1 (stereo not drawn) [Example 36],43
8,CCCNC(=O)NCCCc1ccc(Cc2c(OC3OC(CO)C(F)C(O)C3O)n[nH]c2C)cc1 (stereo not drawn) [Example 31],252

# Next, values leading:
row,IC50 [nM],Compound
1,47,CC(C)c1[nH]nc(OC2OC(CO)C(F)C(O)C2O)c1Cc1ccc(CCCC(=O)NC(CO)(CO)CO)cc1 (stereo not drawn) [Example 21]
2,144,CC(C)c1[nH]nc(OC2OC(CO)C(F)C(O)C2O)c1Cc1ccc(CCCC(=O)NCCCN)cc1 (stereo not drawn) [Example 22]
3,81,CC(C)c1[nH]nc(OC2OC(CO)C(F)C(O)C2O)c1Cc1ccc(CCCC(=O)N[C@@H](CO)C(N)=O)cc1 (stereo partly drawn) [Example 9]
4,133,Cc1[nH]nc(OC2OC(CO)C(F)C(O)C2O)c1Cc1ccc(CCCC(=O)NCCC(N)=O)cc1 (stereo not drawn) [Example 6]
